Data taken from patent publication US20080033056A1 (Metaproteomics, LLC, priority 2006, published 2008).
Marks after values point to notes of the source that are not given here.

Columns and labels:
[1] = tested on: TNFα-treated 3T3-L1 adipocytes; assay: Adiponectin secretion from TNFα-treated 3T3-L1 adipocytes; format: cell-based, murine; conditions: 10 ng TNFα/ml
Procedure: For two days, the cells were allowed grow to reach confluence. […] (3) 0.5 μM dexamethasone and (4) 10 μg/ml insulin (MDI medium). […] Adiponectin Assay—The adiponectin secreted into the medium was quantified using the Mouse Adiponectin Quantikine® Immunoassay kit with no modifications (R&D Systems, Minneapolis, Minn.). […] Statistical Calculations and Interpretation—All assays were preformed in duplicate. […] Differences among the doses and test agents were determined using the Student's t-test without correction for multiple comparisons; the nominal five percent probability of a type I error was selected.

[2] = tested on: LPS-treated 3T3-L1 adipocytes; assay: Adiponectin secretion in LPS/3T3-L1 adipocytes; format: cell-based, murine; conditions: for % Stimulation of adiponectin secretion (maximum): at the concentration of maximum stimulation, NS = not significantly different from the LPS control; for adiponectin secretion: any dose tested
3T3-L1 adipocytes = assay: Lipogenesis in 3T3-L1 adipocytes (Oil Red O / BODIPY); format: cell-based, murine; conditions: relative to controls
Procedure: Prior to experiments, cells were cultured in DMEM containing 10% FBS-HI added 50 units penicillin/ml and 50 μg streptomycin/ml, and maintained in log phase prior to experimental setup. Cells were grown in a 5% CO2 humidified incubator at 37° C. Components of the pre-confluent medium included (1) 10% FBS/DMEM containing 4.5 g glucose/L; (2) 50 U/ml penicillin; and (3) 50 μg/ml streptomycin. Growth medium was made by adding 50 ml of heat inactivated FBS and 5 ml of penicillin/streptomycin to 500 ml DMEM. This medium was stored at 4° C. Before use, the medium was warmed to 37° C. in a water bath.
3T3-T1 cells were seeded at an initial density of 6×10^4 cells/cm^2 in 24-well plates. For two days, the cells were allowed grow to reach confluence. Following confluence, the cells were forced to differentiate into adipocytes by the addition of differentiation medium; this medium consisted of (1) 10% FBS/DMEM (high glucose); (2) 0.5 mM methylisobutylxanthine; (3) 0.5 μM dexamethasone and (4) 10 μg/ml insulin (MDI medium). After three days, the medium was changed to post-differentiation medium consisting of 10 μg/ml insulin in 10% FBS/DMEM.
AcE was partially dissolved in dimethyl sulfoxide (DMSO) and added to the culture medium to achieve a concentration of 50 μg/ml at Day 0 of differentiation and throughout the maturation phase (Days 6 or 7 (D6/7)). Whenever fresh media were added, fresh test material was also added. DMSO was chosen for its polarity and the fact that it is miscible with the aqueous cell culture media.
Oil Red O Staining—Triglyceride content of D6/D7-differentiated 3T3-L1 cells was estimated with Oil Red O according to the method of Kasturi and Joshi [Kasturi, R. and Joshi, V. C. […] Monolayer cells were washed with PBS (phosphate buffered saline, Mediatech) and fixed with 10% formaldehyde for ten minutes. Fixed cells were stained with an Oil Red O working solution of three parts 0.6% Oil Red O/isopropanol stock solution and two parts water for one hour and the excess stain was washed once with water. The resulting stained oil droplets were extracted from the cells with isopropanol and quantified by spectrophotometric analysis at 540 nm (MEL312e BIO-KINETICS READER, Bio-Tek Instruments, Winooski, Vt.).
Briefly, media were removed and cells were washed once with non-sterile PBS. A stock 1000× BODIPY/DMSO solution was made by dissolving 1 mg BODIPY in 1 ml DMSO (1,000 μg BODIPY/ml). […] After 15 min on an orbital shaker (DS-500, VWR Scientific Products, South Plainfield, N.J.) at ambient temperature, the cells were washed with 100 μl PBS followed by the addition of 100 μl PBS for reading for spectrofluorometric determination of BODIPY incorporation into the cells. […]

[3] = tested on: LPS-stimulated 3T3-L1 adipocytes; assay: IL-6 secretion in LPS/3T3-L1 adipocytes; format: cell-based, murine; conditions: at the concentration of maximum inhibition, 100 ng LPS/ml, D5 3T3-L1; for IL-6 Index: indexed to LPS control
[4] = tested on: A549 pulmonary epithelial cells; assay: PGE2 biosynthesis in A549 cells stimulated by mite dust allergen; format: cell-based, human; conditions: 10 μg/ml
Procedure: The filtrate was termed mite dust allergen and used to test for induction of PGE2 biosynthesis in A549 pulmonary epithelial cells.
Mite allergen was added to the culture medium to achieve a final concentration of 1000 ng/ml. Eighteen hours later, the media were sampled for PGE2 determination.

DBA/J mice = assay: Collagen induced rheumatoid arthritis murine model (arthritic index, histology, serum IL-6); format: in vivo, mouse; conditions: 10 mg/kg
[5] = tested on: insulin-resistant 3T3-L1 adipocytes; assay: IL-6 secretion from insulin-resistant 3T3-L1 adipocytes; format: cell-based, murine
Procedure: Statistical Calculations and Interpretation—All assays were preformed in duplicate. For statistical analysis, the effect of hops derivatives on adiponectin or IL-6 secretion was computed relative to the solvent control. Differences among the doses were determined using analysis of variance without correction for multiple comparisons; the nominal five percent probability of a type I error was selected.

db/db mice = assay: Non-fasting serum glucose and insulin in db/db diabetic mice; format: in vivo, mouse; conditions: three daily doses
Procedure: The Model—Male, C57BLKS/J m^+/m^+Lepr^db (db/db) mice were used to assess the potential of the test materials to reduce fasting serum glucose or insulin concentrations. This strain of mice is resistant to leptin by virtue of the absence of a functioning leptin receptor.
Testing Procedure—Test substances were administered daily by gavage in 0.2% Tween-80. Serum was collected from the retroorbital sinus before the initial dose and ninety minutes after the third and final dose. Non-fasting serum glucose was determined enzymatically by the mutarotase/glucose oxidase method and serum insulin was determined by a mouse specific ELISA.
The Model—Male, C57BLKS/J m+/m+Leprdb (db/db) mice were used to assess the potential of the test materials to reduce fasting serum glucose or insulin concentrations. This strain of mice is resistant to leptin by virtue of the absence of a functioning leptin receptor.
Testing Procedure—Test substances were administered daily by gavage in 0.2% Tween-80. […] Non-fasting serum glucose was determined enzymatically by the mutarotase/glucose oxidase method and serum insulin was determined by a mouse specific ELISA.

[6] = tested on: insulin-resistant 3T3-L1 adipocytes; assay: Adiponectin secretion from insulin-resistant 3T3-L1 adipocytes; format: cell-based, murine; conditions: 50.0 μg/ml; ratio of Adiponectin Index to IL-6 Index (Table 21)

## Cc1c(C)c2c(c(C)c1O)CCC(C)(COc1ccc(CC3SC(=O)NC3=O)cc1)O2 (stereo not shown) [Troglitazone]
[1]
  maximum increase of adiponectin secretion over TNFα control: 51%
[2]
  % Stimulation of adiponectin secretion (maximum): 15%

## COc1ccc2c(c1)c(CC(=O)O)c(C)n2C(=O)c1ccc(Cl)cc1 [Indomethacin]
3T3-L1 adipocytes
  lipogenic/adipogenic response: induced lipogenesis to a similar extent
[3]
  % Inhibition of IL-6 secretion (maximum): 53* %
[2]; LPS 100 ng/ml, […]
  stimulation of adiponectin secretion: 9%
[2]
  % Stimulation of adiponectin secretion (maximum): 9%

## Beta acids
[4]
  Percent PGE2 Inhibition: 83%
3T3-L1 adipocytes
  lipogenic/adipogenic response: comparable to indomethacin and troglitazone

## CC(=O)Oc1ccccc1C(=O)O [Aspirin]
[2]; LPS 100 ng/ml
  adiponectin secretion: failed to induce adiponectin secretion

## C[C@]12C=CC(=O)C=C1CC[C@@H]1[C@@H]2[C@@H](O)C[C@@]2(C)[C@H]1CC[C@]2(O)C(=O)CO [prednisolone]
DBA/J mice
  reduction of serum IL-6 levels: reached a statistical significance

## CC(C)CCC1=C(O)C(C(=O)C(C)C)=C(O)C(CCC(C)C)(CCC(C)C)C1=O [Hexahydro colupulone]
3T3-L1 adipocytes
  lipogenic/adipogenic response: failed to elicit a lipogenic response

## CCc1ccc(CCOc2ccc(CC3SC(=O)NC3=O)cc2)nc1 (stereo not shown) [Pioglitazone]
[1]
  maximum increase of adiponectin secretion over TNFα control: 80%
[1]; Test/TNFα control
  Adiponectin Index (maximum): 1.47
[3]
  IL-6 Index: 0.37*
[2]
  % Stimulation of adiponectin secretion (maximum): 12%

## COc1cc(O)c(CC=C(C)C)c(O)c1C(=O)/C=C/c1ccc(O)cc1 [xanthohumol]
3T3-L1 adipocytes
  lipogenic/adipogenic response: comparable to indomethacin and troglitazone
[5]
  IL-6 secretion: Significant decreases in IL-6 secretion

## O=C(O)c1ccccc1O [salicylic acid]
[3]
  IL-6 Index: 0.52*
[2]; LPS 100 ng/ml
  adiponectin secretion: failed to induce adiponectin secretion

## CN(C)C(=N)N=C(N)N [metformin]
db/db mice
  serum glucose relative to the controls: decreased
  serum insulin relative to the controls: decreased

## CC(C)CCC1=C(O)C(C(=O)C(C)C)=C(O)C(CCC(C)C)(CCC(C)C)C1=O [Hexahydrocolupulone (HHCL)]
[6]
  Adiponectin/IL-6: 0.60#
